According to patent EP4685149A1, “NOVEL COMPOUND AS ENDOTHELIAL TO MESENCHYMAL TRANSITION (ENDMT) INHIBITOR, AND PHARMACEUTICAL COMPOSITION COMPRISING SAME” (Korea Institute of Radiological & Medical Sciences, priority 2023, dated 2024):
Read-outs that look alike come from different tables or passages of the source.

System: human vascular endothelial cell lines
Assay: Inhibition of radiation-induced endothelial cell transition (EndMT), phalloidin immunofluorescence staining
Assay type: cell-based
Details: 10 uM test substance 1 hour before 10 Gy irradiation, 72 hours after irradiation, relative ratio with IR group (10 Gy alone) as 100%; for activity at 10 µM: Homo sapiens, Endothelial cell, light or radiation study
Experimental: Test substances (Examples 1 to 45) were treated with a 10 mM DMSO solution at a ratio of 1 µL per 1 mL of cell culture medium to a final concentration of 10 uM, and the test substances were treated 1 hour before irradiation on human vascular endothelial cell lines (Promocell, Germany), and then, it was irradiated at an intensity of 10 Gy. 72 hours after irradiation, the human vascular endothelial cell lines were fixed with 10% formalin, and the experiment was conducted according to the manufacturer's method using phalloidin (Invitrogen, USA) to confirm the cytoskeleton filaments that increase during fibrosis. Phalloidin is a protein that binds to the actin of cytoskeleton filaments, and phalloidin conjugated with FITC fluorescent substance made the cytoskeleton filaments appear green when observed under a microscope.
After treatment with the test substance, the area, length and density of phalloidin were measured by using a confocal microscope, and the relative ratio was expressed with the irradiated group (IR group) that was irradiated with 10 Gy alone as 100% (Table 1).

## O[C@@H]1[C@H](O)CS[C@H]1n1cnc2c(NC3CCc4ccccc4C3)nc(Cl)nc21 (stereo partly drawn) [Example 35, (2R,3R,4S)-2-(2-chloro-6-((1,2,3,4-tetrahydronaphthalen-2-yl)amino)-9H-purin-9-yl)tetrahydrothiophene-3,4-diol]
read-out: Palloidin Area
  activity at 10 µM: > 80%
read-out: Palloidin Intensity
  activity at 10 µM: > 80%
read-out: Palloidin Length
  activity at 10 µM: > 80%

## CC#Cc1nc(N[C@@H]2CCc3ccccc32)c2ncn([C@@H]3SC[C@@H](O)[C@H]3O)c2n1 [Example 1, (2R,3R,4S)-2-[6-[[(1R)-indan-1-yl]amino]-2-prop-1-ynyl-purin-9-yl]tetrahydrothiophene-3,4-diol]
read-out: Palloidin Area
  activity at 10 µM: 50 to 80%
read-out: Palloidin Intensity
  activity at 10 µM: 50 to 80%
read-out: Palloidin Length
  activity at 10 µM: > 80%

## N#Cc1cccc2c1CC[C@H]2Nc1nc(Cl)nc2c1ncn2[C@@H]1SC[C@@H](O)[C@H]1O [Example 24, (1R)-1-[[2-chloro-9-[(2R,3R,4S)-3,4-dihydroxytetrahydrothiophen-2-yl]purin-6-yl]amino]indane-4-carbonitrile]
read-out: Palloidin Area
  activity at 10 µM: 50 to 80%
read-out: Palloidin Intensity
  activity at 10 µM: 50 to 80%
read-out: Palloidin Length
  activity at 10 µM: 50 to 80%

## O[C@@H]1[C@H](O)CS[C@H]1n1cnc2c(NC3Cc4ccccc4C3)nc(Cl)nc21 [Example 7, (2R,3R,4S)-2-[2-chloro-6-(indan-2-ylamino)purin-9-yl]tetrahydrothiophene-3,4-diol]
read-out: Palloidin Area
  activity at 10 µM: > 80%
read-out: Palloidin Intensity
  activity at 10 µM: > 80%
read-out: Palloidin Length
  activity at 10 µM: > 80%

## COc1cccc2c1[C@H](Nc1nc(Cl)nc3c1ncn3[C@@H]1SC[C@@H](O)[C@H]1O)CC2 [Example 14, (2R,3R,4S)-2-[2-chloro-6-[[(1R)-7-methoxyindan-1-yl]amino]purin-9-yl]tetrahydrothiophene-3,4-diol]
read-out: Palloidin Area
  activity at 10 µM: 50 to 80%
read-out: Palloidin Intensity
  activity at 10 µM: 50 to 80%
read-out: Palloidin Length
  activity at 10 µM: 50 to 80%

## CCC#Cc1nc(N[C@@H]2CCc3ccccc32)c2ncn([C@@H]3SC[C@@H](O)[C@H]3O)c2n1 [Example 3, (2R,3R,4S)-2-[2-but-1-ynyl-6-[[(1R)-indan-1-yl]amino]purin-9-yl]tetrahydrothiophene-3,4-diol]
read-out: Palloidin Area
  activity at 10 µM: > 80%
read-out: Palloidin Intensity
  activity at 10 µM: > 80%
read-out: Palloidin Length
  activity at 10 µM: > 80%

## CC#Cc1nc(N[C@H]2CCc3ccccc32)c2ncn([C@@H]3SC[C@@H](O)[C@H]3O)c2n1 [Example 2, (2R,3R,4S)-2-[6-[[(1S)-indan-1-yl]amino]-2-prop-1-ynyl-purin-9-yl]tetrahydrothiophene-3,4-diol]
read-out: Palloidin Area
  activity at 10 µM: > 80%
read-out: Palloidin Intensity
  activity at 10 µM: > 80%
read-out: Palloidin Length
  activity at 10 µM: > 80%

## CCCC#Cc1nc(N[C@H]2CCc3ccccc32)c2ncn([C@@H]3SC[C@@H](O)[C@H]3O)c2n1 [Example 6, (2R,3R,4S)-2-[6-[[(1S)-indan-1-yl]amino]-2-pent-1-ynyl-purin-9-yl]tetrahydrothiophene-3,4-diol]
  Palloidin Length: ++^+
read-out: Palloidin Area
  activity at 10 µM: 20 to 50%
read-out: Palloidin Intensity
  activity at 10 µM: 20 to 50%

## O[C@@H]1[C@H](O)CS[C@H]1n1cnc2c(N[C@@H]3CCCc4ccccc43)nc(Cl)nc21 [Example 39, (2R,3R,4S)-2-(2-chloro-6-(((R)-1,2,3,4-tetrahydronaphthalen-1-yl)amino)-9H-purin-9-yl)tetrahydrothiophene-3,4-diol]
read-out: Palloidin Area
  activity at 10 µM: > 80%
read-out: Palloidin Intensity
  activity at 10 µM: > 80%
read-out: Palloidin Length
  activity at 10 µM: > 80%

## O[C@@H]1[C@H](O)CS[C@H]1n1cnc2c(N[C@@H]3CCc4cc(C(F)(F)F)ccc43)nc(Cl)nc21 [Example 28, (2R,3R,4S)-2-[2-chloro-6-[[(1R)-5-(trifluoromethyl)indan-1-yl]amino]purin-9-yl]tetrahydrothiophene-3,4-diol]
read-out: Palloidin Area
  activity at 10 µM: 50 to 80%
read-out: Palloidin Intensity
  activity at 10 µM: 50 to 80%
read-out: Palloidin Length
  activity at 10 µM: > 80%

## CCC#Cc1nc(N[C@H]2CCc3ccccc32)c2ncn([C@@H]3SC[C@@H](O)[C@H]3O)c2n1 [Example 4, (2R,3R,4S)-2-[2-but-1-ynyl-6-[[(1S)-indan-1-yl]amino]purin-9-yl]tetrahydrothiophene-3,4-diol]
read-out: Palloidin Area
  activity at 10 µM: 50 to 80%
read-out: Palloidin Intensity
  activity at 10 µM: 50 to 80%
read-out: Palloidin Length
  activity at 10 µM: 50 to 80%

## O[C@@H]1[C@H](O)CS[C@H]1n1cnc2c(NC3CCc4ccccc4CC3)nc(Cl)nc21 [Example 43, (2R,3R,4S)-2-(2-chloro-6-((6,7,8,9-tetrahydro-5H-benzo[7]annulen-7-yl)amino)-9H-purin-9-yl)tetrahydrothiophene-3,4-diol]
read-out: Palloidin Area
  activity at 10 µM: > 80%
read-out: Palloidin Intensity
  activity at 10 µM: > 80%
read-out: Palloidin Length
  activity at 10 µM: > 80%

## COC(=O)c1ccc2c(c1)CC[C@H]2Nc1nc(Cl)nc2c1ncn2[C@@H]1SC[C@@H](O)[C@H]1O [Example 31, Methyl (R)-1-((2-chloro-9-((2R,3R,4S)-3,4-dihydroxytetrahydrothiophen-2-yl)-9H-purin-6-yl)amino)-2,3-dihydro-1H-indene-5-carboxylate]
read-out: Palloidin Area
  activity at 10 µM: > 80%
read-out: Palloidin Intensity
  activity at 10 µM: > 80%
read-out: Palloidin Length
  activity at 10 µM: > 80%

## O[C@@H]1[C@H](O)CS[C@H]1n1cnc2c(N[C@@H]3CCc4ccccc4C3)nc(Cl)nc21 [Example 37, (2R,3R,4S)-2-(2-chloro-6-(((R)-1,2,3,4-tetrahydronaphthalen-2-yl)amino)-9H-purin-9-yl)tetrahydrothiophene-3,4-diol]
read-out: Palloidin Area
  activity at 10 µM: 50 to 80%
read-out: Palloidin Intensity
  activity at 10 µM: 50 to 80%
read-out: Palloidin Length
  activity at 10 µM: > 80%

## O[C@@H]1[C@H](O)CS[C@H]1n1cnc2c(N[C@@H]3CCc4c(F)cccc43)nc(Cl)nc21 [Example 15, (2R,3R,4S)-2-[2-chloro-6-[[(1R)-4-fluoroindan-1-yl]amino]purin-9-yl]tetrahydrothiophene-3,4-diol]
read-out: Palloidin Area
  activity at 10 µM: < 20%
read-out: Palloidin Intensity
  activity at 10 µM: < 20%
read-out: Palloidin Length
  activity at 10 µM: < 20%

## O[C@@H]1[C@H](O)CS[C@H]1n1cnc2c(N[C@@H]3CCc4ccccc43)nc(Cl)nc21 [Example 9, (2R,3R,4S)-2-[2-chloro-6-[[(1R)-indan-1-yl]amino]purin-9-yl]tetrahydrothiophene-3,4-diol]
read-out: Palloidin Area
  activity at 10 µM: 50 to 80%
read-out: Palloidin Intensity
  activity at 10 µM: 50 to 80%
read-out: Palloidin Length
  activity at 10 µM: 50 to 80%

## O[C@@H]1[C@H](O)CS[C@H]1n1cnc2c(NC3CCCc4ccccc43)nc(Cl)nc21 (stereo partly drawn) [Example 38, (2R,3R,4S)-2-(2-chloro-6-((1,2,3,4-tetrahydronaphthalen-1-yl)amino)-9H-purin-9-yl)tetrahydrothiophene-3,4-diol]
read-out: Palloidin Area
  activity at 10 µM: > 80%
read-out: Palloidin Intensity
  activity at 10 µM: > 80%
read-out: Palloidin Length
  activity at 10 µM: > 80%

## O[C@@H]1[C@H](O)CS[C@H]1n1cnc2c(N[C@H]3CCc4ccccc43)nc(Cl)nc21 [Example 10, (2R,3R,4S)-2-[2-chloro-6-[[(1S)-indan-1-yl]amino]purin-9-yl]tetrahydrothiophene-3,4-diol]
read-out: Palloidin Area
  activity at 10 µM: > 80%
read-out: Palloidin Intensity
  activity at 10 µM: > 80%
read-out: Palloidin Length
  activity at 10 µM: > 80%

## O[C@@H]1[C@H](O)CS[C@H]1n1cnc2c(N[C@H]3CCCc4ccccc43)nc(Cl)nc21 [Example 40, (2R,3R,4S)-2-(2-chloro-6-(((S)-1,2,3,4-tetrahydronaphthalen-1-yl)amino)-9H-purin-9-yl)tetrahydrothiophene-3,4-diol]
read-out: Palloidin Area
  activity at 10 µM: > 80%
read-out: Palloidin Intensity
  activity at 10 µM: > 80%
read-out: Palloidin Length
  activity at 10 µM: > 80%

## COc1ccc2c(c1)[C@H](Nc1nc(Cl)nc3c1ncn3[C@@H]1SC[C@@H](O)[C@H]1O)CC2 [Example 13, (2R,3R,4S)-2-[2-chloro-6-[[(1R)-6-methoxyindan-1-yl]amino]purin-9-yl]tetrahydrothiophene-3,4-diol]
read-out: Palloidin Area
  activity at 10 µM: 50 to 80%
read-out: Palloidin Intensity
  activity at 10 µM: 50 to 80%
read-out: Palloidin Length
  activity at 10 µM: 50 to 80%

## COc1cccc2c1CC[C@H]2Nc1nc(Cl)nc2c1ncn2[C@@H]1SC[C@@H](O)[C@H]1O [Example 11, (2R,3R,4S)-2-[2-chloro-6-[[(1R)-4-methoxyindan-1-yl]amino]purin-9-yl]tetrahydrothiophene-3,4-diol]
read-out: Palloidin Area
  activity at 10 µM: 20 to 50%
read-out: Palloidin Intensity
  activity at 10 µM: 20 to 50%
read-out: Palloidin Length
  activity at 10 µM: 20 to 50%
